Laboratory results: the NIST ThermoML archive (doi:10.1016/j.jct.2010.05.002)
Values joined by “and” are separate entries in the source; they are usually repeats but may differ in a detail not shown here. Equal values may be shown once.

Experiment: molar heat capacity at constant pressure
Conditions: 101.33 kPa, Vacuum adiabatic calorimetry

Cc1ccc(-c2ccccc2)cc1 [4-methylbiphenyl]
Conditions | molar heat capacity at constant pressure
305.78 K, Crystal 1 | 244.15 J/K/mol
306.24 K, Crystal 1 | 244.23 J/K/mol
306.7 K, Crystal 1 | 245.51 J/K/mol
307.16 K, Crystal 1 | 246.05 J/K/mol
307.62 K, Crystal 1 | 246.17 J/K/mol
308.08 K, Crystal 1 | 246.5 J/K/mol
308.53 K, Crystal 1 | 247 J/K/mol
308.98 K, Crystal 1 | 247.25 J/K/mol
309.43 K, Crystal 1 | 248.47 J/K/mol
309.88 K, Crystal 1 | 249.54 J/K/mol
310.32 K, Crystal 1 | 249.25 J/K/mol
310.48 K, Crystal 1 | 249.45 J/K/mol
310.92 K, Crystal 1 | 251.3 J/K/mol
311.36 K, Crystal 1 | 251.5 J/K/mol
312.31 K, Crystal 1 | 256.21 J/K/mol
313.97 K, Crystal 1 | 264.83 J/K/mol
314.78 K, Crystal 1 | 273.5 J/K/mol
315.57 K, Crystal 1 | 291.72 J/K/mol
321.28 K, Liquid | 289.67 J/K/mol
322.04 K, Liquid | 290.27 J/K/mol
322.79 K, Liquid | 290.67 J/K/mol
323.53 K, Liquid | 290.73 J/K/mol
324.28 K, Liquid | 291.55 J/K/mol
325.01 K, Liquid | 291.28 J/K/mol
325.74 K, Liquid | 291.46 J/K/mol
326.47 K, Liquid | 293.2 J/K/mol
327.19 K, Liquid | 292.01 J/K/mol
327.91 K, Liquid | 293.22 J/K/mol
328.27 K, Liquid | 292.87 J/K/mol
328.98 K, Liquid | 293.44 J/K/mol
329.68 K, Liquid | 293.4 J/K/mol
330.38 K, Liquid | 294.27 J/K/mol
331.07 K, Liquid | 293.42 J/K/mol
331.76 K, Liquid | 294.54 J/K/mol
332.45 K, Liquid | 294.83 J/K/mol
333.13 K, Liquid | 295.75 J/K/mol
333.8 K, Liquid | 295.68 J/K/mol
334.47 K, Liquid | 295.42 J/K/mol
336.41 K, Liquid | 298.11 J/K/mol
337.06 K, Liquid | 298.19 J/K/mol
337.7 K, Liquid | 298.22 J/K/mol
338.34 K, Liquid | 298.05 J/K/mol
338.57 K, Liquid | 298.82 J/K/mol
339.03 K, Liquid | 300.03 J/K/mol
339.2 K, Liquid | 299.1 J/K/mol
340.45 K, Liquid | 299.61 J/K/mol
341.07 K, Liquid | 299.94 J/K/mol
341.68 K, Liquid | 301.45 J/K/mol
342.29 K, Liquid | 300.21 J/K/mol
342.89 K, Liquid | 301.42 J/K/mol
343.49 K, Liquid | 302.55 J/K/mol
344.08 K, Liquid | 301.94 J/K/mol
344.67 K, Liquid | 303 J/K/mol
345.25 K, Liquid | 303.08 J/K/mol
346.41 K, Liquid | 304.11 J/K/mol
346.98 K, Liquid | 304.03 J/K/mol
347.55 K, Liquid | 304.56 J/K/mol
347.66 K, Liquid | 303.66 J/K/mol
348.78 K, Liquid | 306.1 J/K/mol
349.3 K, Liquid | 305.23 J/K/mol
349.88 K, Liquid | 305.3 J/K/mol
350.42 K, Liquid | 305.41 J/K/mol
350.96 K, Liquid | 306.68 J/K/mol
351.49 K, Liquid | 306.74 J/K/mol
352.02 K, Liquid | 307.44 J/K/mol
352.55 K, Liquid | 307.72 J/K/mol
353.07 K, Liquid | 307.31 J/K/mol
353.59 K, Liquid | 308.24 J/K/mol
354.1 K, Liquid | 307.67 J/K/mol
354.61 K, Liquid | 308.41 J/K/mol
355.12 K, Liquid | 308.12 J/K/mol
355.62 K, Liquid | 308.6 J/K/mol and 307.85 J/K/mol
356.11 K, Liquid | 307.9 J/K/mol
356.61 K, Liquid | 309.76 J/K/mol
357.09 K, Liquid | 308.25 J/K/mol
357.58 K, Liquid | 309.03 J/K/mol
358.05 K, Liquid | 309.85 J/K/mol
358.53 K, Liquid | 309.78 J/K/mol
359 K, Liquid | 309.73 J/K/mol
359.47 K, Liquid | 309.75 J/K/mol
359.53 K, Liquid | 309.84 J/K/mol
360.39 K, Liquid | 310.32 J/K/mol
360.84 K, Liquid | 311.4 J/K/mol
361.29 K, Liquid | 311.64 J/K/mol
361.74 K, Liquid | 310.99 J/K/mol
362.18 K, Liquid | 311.55 J/K/mol
362.52 K, Liquid | 311.51 J/K/mol
362.62 K, Liquid | 311.89 J/K/mol
362.96 K, Liquid | 311.52 J/K/mol
363.39 K, Liquid | 310.96 J/K/mol
365.49 K, Liquid | 313.17 J/K/mol
365.9 K, Liquid | 312.29 J/K/mol
366.3 K, Liquid | 313.49 J/K/mol
366.7 K, Liquid | 314.04 J/K/mol
367.1 K, Liquid | 313.11 J/K/mol
367.49 K, Liquid | 314.44 J/K/mol
367.88 K, Liquid | 314.05 J/K/mol
368.27 K, Liquid | 313.75 J/K/mol
368.45 K, Liquid | 313.66 J/K/mol
368.65 K, Liquid | 313.35 J/K/mol
368.82 K, Liquid | 312.67 J/K/mol
369.2 K, Liquid | 314.01 J/K/mol
369.57 K, Liquid | 314.85 J/K/mol
369.94 K, Liquid | 314.67 J/K/mol
370.3 K, Liquid | 314.64 J/K/mol
370.66 K, Liquid | 315.15 J/K/mol
371.02 K, Liquid | 314.85 J/K/mol
371.37 K, Liquid | 314.45 J/K/mol
371.71 K, Liquid | 316.2 J/K/mol
372.06 K, Liquid | 315.57 J/K/mol
372.39 K, Liquid | 315.1 J/K/mol
